The test system of data set [1] is Human primary dermal fibroblasts (HPDF). Put plainly: MTT cytotoxicity assay, HPDF. The data set is classed as cell-based. As to conditions: for IC50: Homo sapiens, Fibroblast, MTT assay, 48 h of treatment, mean ± SEM; for Selectivity against tumor cells and human fibroblasts: in words. An excerpt: (§1) All cell lines used in this study (human non-small cell lung cancer—H1299 (Accession Number—CRL-5803), human lung carcinoma—A549 (Accession Number—CCL-185), human breast adenocarcinoma—MCF-7 (Accession Number—HTB-22), human breast ductal carcinoma—BT474 (Accession Number—HTB-20)) were purchased from American Type Culture Collection (ATCC, Manassas, VA, USA). Human primary dermal fibroblasts (HPDF) derived from a patch of skin of healthy donors (n = 3) were obtained from the biobank of the Institute for Regenerative Medicine, Lomonosov Moscow State University, collection ID: MSU_FB (https://human.depo.msu.ru (accessed on 14 September 2021)). Cells were grown in DMEM media supplemented with 10% fetal bovine serum, 100 μg/mL gentamycin, and 2 mM of glutamine at 37 °C in a 5% CO2 atmosphere.
(§2) To carry out the MTT assay, 3500 cells per well were seeded in 96-well plates. […] DMSO was used as a control. […] After removing the thiazol-containing medium, 150 μL of isopropyl alcohol (supplemented with 40 mM HCl and 0.1% NP-40) was added to dissolve the MTT-formazan salt. The absorbance at 570 and 630 nm (reference) was measured using a BioRad iMark microplate reader (BioRad, Hercules, CA, USA). Four biological replicates were used for the experiment. The results were processed with Excel software (version number: 14.0.6023.1000 (32-bit)). IC50 values were calculated by using AAT Bioquest online calculator (https://www.aatbio.com/tools/ic50-calculator, accessed on 15 May 2023) and are represented as the mean ± SEM.
(Tetrazolium assays rely on reduction of a dye to a coloured formazan, in cell work by metabolically active cells.)

Data set [2] deals with H1299 cells (human non-small cell lung cancer). Put plainly: MTT cytotoxicity assay, H1299. The data set is classed as cell-based. As to conditions: mean ± SEM.
Excerpt: as §1
(§3) To carry out the MTT assay, 3500 cells per well were seeded in 96-well plates. A day after the seeding, triterpenoids or their derivatives dissolved in DMSO were added. DMSO was used as a control. At 48 h after cell seeding, 10 μL of 5 mg/mL Thiazolyl Blue (Paneko, Russia) solution was added to each well and cells were kept for 3 h at 37 °C in a CO2 incubator. After removing the thiazol-containing medium, 150 μL of isopropyl alcohol (supplemented with 40 mM HCl and 0.1% NP-40) was added to dissolve the MTT-formazan salt. The absorbance at 570 and 630 nm (reference) was measured using a BioRad iMark microplate reader (BioRad, Hercules, CA, USA). Four biological replicates were used for the experiment. The results were processed with Excel software (version number: 14.0.6023.1000 (32-bit)). IC50 values were calculated by using AAT Bioquest online calculator (https://www.aatbio.com/tools/ic50-calculator, accessed on 15 May 2023) and are represented as the mean ± SEM.

Data set [3] relates to MCF-7 cells (human breast adenocarcinoma). Put plainly: MTT cytotoxicity assay, MCF-7. The data set is classed as cell-based. As to conditions: Homo sapiens, MCF7; MTT assay, 48 h of treatment, mean ± SEM.
Excerpt: as §1, §3

In data set [4] the test system is BT474 cells (human breast ductal carcinoma). In words: MTT cytotoxicity assay, BT474. It counts as cell-based. As to conditions: BT-474, 48 h of treatment, mean ± SEM.
Excerpt: as §1, §3

Data set [5] concerns A549 cells (human lung carcinoma). In words: MTT cytotoxicity assay, A549. It counts as cell-based. The note with it: for IC50: MTT assay, 48 h of treatment, mean ± SEM.
Excerpt: as §1, §2

Data set [6] deals with rat liver mitochondria. In words: Respiration of isolated mitochondria fueled by glutamate and malate. The note with it: 20 μM. It counts as biochemical. On the procedure: (§4) Mitochondria were obtained from the liver of male Wistar rats (210–250 g) using the differential centrifugation method. The detailed procedure and composition of the isolation media were described earlier. The suspension of isolated mitochondria contained about 60–70 mg of mitochondrial protein per ml (determined by the Bradford method).
(§5) The rate of O2 consumption by mitochondrial samples was estimated using Oxygraph Plus (Hansatech Instruments Ltd., Pentney, King’s Lynn, UK). The reaction medium included 200 mM sucrose, 20 mM KCl, 0.5 mM EGTA, 5 mM KH2PO4, and 10 mM Hepes/KOH, pH 7.4. The following combinations of substrates and reagents were used: 2.5 mM potassium glutamate + 2.5 mM potassium malate and 5 mM potassium succinate + 1 µM rotenone. Under these conditions, it is possible to assess the oxygen-consuming capacity of mitochondria through complexes I and II of the electron transport chain. To determine the rates of the phosphorylating respiration (State 3) and uncoupled respiration (State 3UDNP) of the mitochondria, 200 µM ADP and 50 µM 2,4-dinitrophenol (DNP) were added sequentially. The concentration of mitochondrial protein was 1 mg/mL.

Data set [7] deals with rat liver mitochondria. In words: Respiration of isolated mitochondria fueled by succinate. It counts as biochemical. The note with it: 20 μM. On the procedure:
as §4, §5

The subject of data set [8] is rat liver mitochondria. Put plainly: Mitochondrial membrane potential (TPP-sensitive electrode). The note with it: glutamate + malate or succinate + rotenone, Figure 5. The data set is classed as biochemical. The protocol: as §4
The mitochondrial membrane potential (Δψ) was measured using a penetrating tetraphenylphosphonium bromide (TPP) cation and a TPP-sensitive electrode (Nico-Analyte Ltd., Moscow, Russia) as described previously. The concentration of mitochondrial protein was 1 mg/mL.

[9] abbreviates: Homo sapiens, NCI-H1299, 48 h of treatment.

What is called IC50 is the concentration at which inhibition is half-maximal. Low values mean higher potency, high ones lower potency.

Turning to `CC1(C)CCC2(C(=O)OCCCC[n+]3ccc(C=Cc4c[nH]c5ccccc45)cc3)CCC3(C)C(=CCC4C5(C)CC(O)C(O)C(C)(C)C5CCC43C)C2C1` (stereo not drawn) [MA-F16, N-{4-[(2α,3β-dihydroxy-olean-12-en-28-oyl)-butyl]-(E)-4-[2-(1H-indol-3-yl)-vinyl]}pyridinium bromide], the IC50 in data set [1] stood at 9.3 ± 2.56 µM; in data set [2] (setting [9]) it was 10.5 ± 2.44 µM; in data set [3], 7.44 ± 0.78 µM; in data set [4], 11.1 ± 2.51 µM; in data set [5] (Homo sapiens, A549, 48 h) it was 13.5 ± 2.02 µM.
As to `CC1CCC2(C(=O)OCCCC[n+]3ccc(C=Cc4c[nH]c5ccccc45)cc3)CCC3(C)C(=CCC4C5(C)CC(O)C(O)C(C)(C)C5CCC43C)C2C1C` (stereo not drawn) [CA-F16, N-{4-[(2α,3β-dihydroxy-urs-12-en-28-oyl)-butyl]-(E)-4-[2-(1H-indol-3-yl)-vinyl]}pyridinium bromide], the concentration for half-maximal inhibition (IC50) in data set [1] stood at 1.15 ± 0.38 µM; in data set [2] (setting [9]), 4.01 ± 1.69 µM; in data set [3], 1.89 ± 0.27 µM; in data set [4], 6.7 ± 0.35 µM; in data set [5] (Homo sapiens, A549, 48 h), 1.9 µM; in data set [5], 1.87 ± 0.14 µM. Moreover, the “Cytotoxicity higher than that of ursolic acid” value in data set [5] (A549 line, ratio of IC50 values) was 36 times.
With `C[C@H]1[C@H](C)CC[C@]2(C(=O)O)CC[C@]3(C)C(=CC[C@@H]4[C@@]5(C)CC[C@H](O)C(C)(C)[C@@H]5CC[C@]43C)[C@H]12` [UA, ursolic acid, reference compound], in data set [1], inhibition was half-maximal at 59.1 ± 7.73 µM (IC50); the “Selectivity against tumor cells and human fibroblasts” value is recorded as “have not shown selectivity”. This compound came in with an IC50 in data set [2] (setting [9]) of 97.6 ± 5.63 µM. In data set [3], this compound came in with an IC50 of 40.6 ± 12.5 µM. In the data set with rat liver mitochondria [6], the ADP/O is given as 2.82 ± 0.03 rel. un, the “RC (state 3/state 4)” value amounted to 2.13 ± 0.09 rel. un, the “State 2 respiration” value was 8.01 ± 0.15 nmol O2/min/mg Protein and the “State 3UDNP respiration” value turned out to be 36.66 ± 1.47 nmol O2/min/mg Protein. In addition, in the data set on rat liver mitochondria [6], the “State 3 respiration” value came to 26.92 ± 0.64 nmol O2/min/mg Protein and the “State 4 respiration” value is 12.65 ± 0.32 nmol O2/min/mg Protein. It took 110 ± 19.1 µM to reach half-maximal inhibition in data set [4] (IC50). Also, in data set [5] (Homo sapiens, A549, 48 h), it took 68.9 µM to reach half-maximal inhibition (IC50). In addition, the IC50 in data set [5] worked out at 68.9 ± 19.6 µM. Further, in the data set on rat liver mitochondria [7], the ADP/O came to 1.43 ± 0.04 rel. un, the “RC (state 3/state 4)” value stood at 3.32 ± 0.12 rel. un, the “State 2 respiration” value came to 15.19 ± 0.27 nmol O2/min/mg Protein and the “State 3UDNP respiration” value is 75.91 ± 1.74 nmol O2/min/mg Protein. Also, in the data set with rat liver mitochondria [7], the “State 3 respiration” value is recorded as 49.15 ± 0.30 nmol O2/min/mg Protein and the “State 4 respiration” value was 15.54 ± 0.62 nmol O2/min/mg Protein. For the same compound, the “Effect on membrane potential of organelles” value with rat liver mitochondria [8] was “did not show such an ability”.
In the case of `CC1(C)CC[C@]2(C(=O)O)CC[C@]3(C)C(=CC[C@@H]4[C@@]5(C)CC[C@H](O)C(C)(C)[C@@H]5CC[C@]43C)[C@@H]2C1` [OA, oleanolic acid, reference compound], the IC50 amounted to 156 ± 10.4 µM in data set [1]; 139 ± 6.85 µM in data set [2] (48 h of treatment); 139 µM in data set [2] (Homo sapiens, NCI-H1299, 48 h, 48 h of treatment); 114 ± 12.6 µM in data set [3]; 150 ± 25.1 µM in data set [4]; 236 µM in data set [5] (Homo sapiens, A549, 48 h). Moreover, the IC50 in data set [5] worked out at 234 ± 22.1 µM. Moreover, the “Selectivity against tumor cells and human fibroblasts” value in data set [1] is “have not shown selectivity”. The ADP/O in the data set on rat liver mitochondria [6] was found to be 2.53 ± 0.12 rel. un; in the data set on rat liver mitochondria [7], 1.45 ± 0.05 rel. un. The “RC (state 3/state 4)” value with rat liver mitochondria [6] is 2.11 ± 0.12 rel. un; in the data set on rat liver mitochondria [7], 2.80 ± 0.09 rel. un. For the same compound, the “State 2 respiration” value with rat liver mitochondria [6] was 8.39 ± 0.09 nmol O2/min/mg Protein; with rat liver mitochondria [7] it was 15.06 ± 0.15 nmol O2/min/mg Protein. Besides, the “State 3UDNP respiration” value with rat liver mitochondria [6] was determined as 35.74 ± 0.66 nmol O2/min/mg Protein; in the data set on rat liver mitochondria [7], 69.92 ± 0.68 nmol O2/min/mg Protein. In addition, the “State 3 respiration” value worked out at 27.31 ± 0.31 nmol O2/min/mg Protein with rat liver mitochondria [6] and 48.00 ± 0.60 nmol O2/min/mg Protein with rat liver mitochondria [7]. Besides, the “State 4 respiration” value in the data set on rat liver mitochondria [6] was 13.23 ± 0.18 nmol O2/min/mg Protein; in the data set on rat liver mitochondria [7], 17.18 ± 0.78 nmol O2/min/mg Protein. Further, in the data set on rat liver mitochondria [8], the “Effect on membrane potential of organelles” value is “slightly reduce the membrane potential”.
